Patent publication US5635379A, “D-2-alkyl-tryptophan and peptides containing same” (Deghenghi; Romano, priority 1990, dated 1997)
Square brackets hold non-standard residues; d marks the D form. Peptide text beside a SMILES is read from it. dTrp(2-Me) = Cc1[nH]c2ccccc2c1C[C@@H](N)C(=O)O

How the values were obtained:
GH release [1] = assay: GH-releasing activity s.c. in male rats anesthetized with ketamine and xilazine; assay type: in vivo, Sprague Dawley rats
Experimental: (§1) Male Sprague Dawley rats (Charles River, Calco, Italy) of 2-3 months of age were used. Rats were housed at 22 +2° C., with lighting cycle of 14 h light: 10 h dark (lights on from 06.00 to 20.00 h), at least 10 days before starting the experiments. A standard dry diet and water were available ad libitum.
(§2) Between 09.00-10.00 h rats were anesthetized with ketamine (58 mg/kg, Inoketam, VIRBAC, Milano) and xilazine (12 mg/kg, Rompun, Bayer, Milano). Thirty minutes later, a blood sample ([…]) was withdrawn from the exposed jugular vein, peptides were injected intravenously or subcutaneously, and further blood samples were collected 10, 20 and 30 minutes later.
(§3) Medium and plasma GH was measured by radioimmunoassay using materials supplied by the NIADDK Bethesda, Md. Values were expressed in term of NIASSK-rat-GH-RP-2 standard (potency 2 IU/ml), as ng/ml of medium or plasma.
(§4) The minimum detectable value of rat was 1.0 ng/ml; intra-assay variability was 6%. To avoid inter-assay variation, samples from each experiment were assayed simultaneously.

GH release [2] = assay: GH response in conscious, freely-moving rats after antiserum pretreatment and i.v. peptide; assay type: in vivo
Experimental: Sixty male rats were prepared with indwelling venous catheters under ether anesthesia three days before experimentation. On the day of experimentation, all animals were given an iv heparin injection (100 IU; 0630 h). At 0700 h, animals were treated with 0.5 ml of either normal serum (control-as), somatostatin antiserum (somatostatin-as; 0.25 ml+0.25 ml saline), growth hormone-releasing hormone antiserum (GHRH-as; 0.25 ml+0.25 ml saline), or both somatostatin antiserum and growth hormone-releasing hormone antiserum (0.25 ml somatostatin-as+0.25 ml GHRH-as). Blood sampling began […] after antiserum pretreatment, with blood samples collected every 20 minutes for three hours. After the 180 minute sample (1100 h), animals were treated iv with 25 μg/kg of either Hexarelin or GHRP-6. Blood samples were then collected at 5, 10, 15, 20 30, 40, and 60 minutes after peptide treatment. All samples were centrifuged immediately and the plasma frozen until assayed. The peak GH response to Hexarelin and GHRP-6 as well as the area under the response curves (AUCs) for the thirty minutes following peptide injection were calculated. Data were subjected to repeated measures analysis of variance and are expressed as mean ±SEM.

GH release [3] = assay: GH-releasing activity i.v. in male rats anesthetized with ketamine and xilazine; assay type: in vivo, Sprague Dawley rats
Experimental: as §1, §2, §3, §4

[4] = Acute cardiovascular toxicity in the rat, single i.v. dose, mortality; assay type: in vivo; details: for Dead rats/Total N° of rats per group: observed up to 4 hours
Experimental: These two peptides were also tested for acute cardiovascular toxicity in the rat.
Dosages were calculated on the basis of the declared peptide content in each product, as specified below:
A single dose of HEXARELIN or GHRP-6 was administered to rats in different calendar dates in such a way that each group/dose should be treated in two subsequent days.
For each compound, appropriate amounts of solutions in 0.9% NaCl for injection were prepared just before treatment at the suitable concentrations. The solutions were sterilized by filtration (Millipore filter, pore size 0.22 μm). Owing to the type of the study (acute study) in which formulates were administered just after preparation, stability checks were not performed. Concentration checks were also not performed. The volume of solution injected was maintained constant at 1 ml/Kg.
The intravenous injections were done as a single dose in one vein of the tail with an appropriately gauged sterile, disposable, plastic syringe. The injection rate was about 0.1 ml/sec.
Periodical observations were made up to 4 hours after treatment. Abnormality and mortality were recorded. Body weight was recorded once during pre-trial and on the administration day to calculate the volumes to be injected.

GH release [5] = assay: GH release in pentobarbital-anesthetized rats, s.c.; assay type: in vivo, Sprague Dawley rats
Experimental: Male Sprague Dawley rats weighing 225-250 g were divided in groups of five animals each. Rats were anesthetized with Nembutal injected intraperiteonally at 50 mg/kg, fifteen minutes prior to the first blood withdrawal taken over heparin by cardiac puncture (for determination of basal GH).
Subcutaneous injections of either HEXARELIN or GHRP-6 were given immediately after the first blood collection, and additional blood samples were collected 15 and 40 minutes later.
Measurement of rat GH was performed by a standard double antibody radioimmunoassay with reagents supplied by the National Pituitary Agency and the National Institute of Arthritis, Diabetes, and Digestive and Kidney Diseases. The standards used were NIADDK-NIH-rGH-RP-2. Statistical data were obtained with the Student's t Test at a significance level of 5%.

[6] = i.v. 25 μg/kg peptide, pooled over antiserum pretreatments

Which “plasma GH” value (GH release [1]; s.c. 150 μg/kg, 10 min) does the source give for Cc1[nH]c2ccccc2c1C[C@@H](NC(=O)[C@@H](N)Cc1cnc[nH]1)C(=O)N[C@@H](C)C(=O)N[C@@H](Cc1c[nH]c2ccccc12)C(=O)N[C@H](Cc1ccccc1)C(=O)N[C@@H](CCCCN)C(N)=O [Example 4, His-D-2-methyl-Trp-Ala-Trp-D-Phe-Lys-NH2] (H-H[dTrp(2-Me)]AW[dF]K-NH2) here?
The value was 107.1 ± 17.7 ng/mL.

What about the “plasma GH” value (GH release [1]; s.c. 150 μg/kg, 20 min) of the same molecule?
Its value is 156.6 ± 18.7 ng/mL.

And the “plasma GH” value (GH release [1]; s.c. 150 μg/kg, 30 min)?
The value was 86.0 ± 18.9 ng/mL.

And the “plasma GH” value (GH release [1]; s.c. 150 μg/kg, time 0 min (before injection))?
Its value is 12.0 ± 4.0 ng/mL.

And the “plasma GH” value (GH release [1]; s.c. 300 μg/kg, 10 min)?
Its value is 80.6 ± 11.0 ng/mL.

And the “plasma GH” value (GH release [1]; s.c. 300 μg/kg, 20 min)?
The value was 171.7 ± 22.0 ng/mL.

What about the “plasma GH” value (GH release [1]; s.c. 300 μg/kg, 30 min) of the same molecule?
Its value is 102.7 ± 17.0 ng/mL.

What about the “plasma GH” value (GH release [1]; s.c. 300 μg/kg, time 0 min (before injection)) of the same molecule?
Its value is 12.0 ± 4.0 ng/mL.

And the “plasma GH” value (GH release [1]; s.c. 600 μg/kg, 10 min)?
The value was 90.7 ± 16.6 ng/mL.

What about the “plasma GH” value (GH release [1]; s.c. 600 μg/kg, 20 min) of the same molecule?
Its value is 187.5 ± 15.4 ng/mL.

And the “plasma GH” value (GH release [1]; s.c. 600 μg/kg, 30 min)?
Its value is 115.3 ± 19.1 ng/mL.

And the “plasma GH” value (GH release [1]; s.c. 600 μg/kg, time 0 min (before injection))?
Its value is 23.0 ± 6.0 ng/mL.

What about the “effect on plasma GH, comparison with GHRP-6” value (GH release [1]; s.c. 150, 300 and 600 μg/kg, 10, 20 and 30 minutes) of the same molecule?
Its value is “more effective than GHRP-6 at all the considered times”.

And the “Mean GH” value (GH release [2]; [6])?
Its value is 235 ± 21 ng/mL.

What about the “Peak GH” value (GH release [2]; [6]) of the same molecule?
The value was 552 ± 59 ng/mL.

And the “GH AUC” value (GH release [2]; i.v. 25 μg/kg peptide, thirty minutes following injection, pooled over antiserum pretreatments)?
Its value is 7366 ± 912 ng/ml/30 min.

And the “overall GH response compared with GHRP-6” value (GH release [2]; i.v. 25 μg/kg, pooled results)?
Its value is “more effective in eliciting a higher mean GH response as compared to GHRP-6”.

What about the “plasma GH” value (GH release [3]; i.v. 150 μg/kg, 10 min) of the same molecule?
Its value is 412.7 ± 39.7 ng/mL.

What about the “plasma GH” value (GH release [3]; i.v. 150 μg/kg, 20 min) of the same molecule?
The value was 132.2 ± 12.7 ng/mL.

And the “plasma GH” value (GH release [3]; i.v. 150 μg/kg, 30 min)?
Its value is 44.0 ± 6.0 ng/mL.

What about the “plasma GH” value (GH release [3]; i.v. 150 μg/kg, time 0 min (before injection)) of the same molecule?
The value was 15.0 ± 2.9 ng/mL.

What about the “plasma GH” value (GH release [3]; i.v. 300 μg/kg, 10 min) of the same molecule?
Its value is 438.5 ± 26.8 ng/mL.

And the “plasma GH” value (GH release [3]; i.v. 300 μg/kg, 20 min)?
The value was 213.8 ± 34.2 ng/mL.

What about the “plasma GH” value (GH release [3]; i.v. 300 μg/kg, 30 min) of the same molecule?
The value was 48.1 ± 8.8 ng/mL.

And the “plasma GH” value (GH release [3]; i.v. 300 μg/kg, time 0 min (before injection))?
Its value is 13.5 ± 2.0 ng/mL.

What about the “plasma GH” value (GH release [3]; i.v. 600 μg/kg, 10 min) of the same molecule?
Its value is 478.3 ± 19.8 ng/mL.

What about the “plasma GH” value (GH release [3]; i.v. 600 μg/kg, 20 min) of the same molecule?
The value was 164.2 ± 13.2 ng/mL.

What about the “plasma GH” value (GH release [3]; i.v. 600 μg/kg, 30 min) of the same molecule?
Its value is 54.5 ± 13.3 ng/mL.

And the “plasma GH” value (GH release [3]; i.v. 600 μg/kg, time 0 min (before injection))?
Its value is 18.4 ± 4.3 ng/mL.

What about the “effect on plasma GH concentrations” value (GH release [3]; i.v. 150, 300 and 600 μg/kg, 10 and 20 minutes after administration) of the same molecule?
Its value is “significant increases”.

And the “Dead rats/Total N° of rats per group” value ([4]; single i.v. dose 5.0 mg/kg)?
The value was 0/6.

What about the “Dead rats/Total N° of rats per group” value ([4]; single i.v. dose 7.5 mg/kg) of the same molecule?
The value was 1/6.

What about the “Dead rats/Total N° of rats per group” value ([4]; single i.v. dose 10 mg/kg) of the same molecule?
The value was 2/6.

What about the “toxicity compared with GHRP-6” value ([4]; single i.v. dose, mortality) of the same molecule?
Its value is “less toxic than GHRP-6”.

What about the “POST-DRUG PLASMA GH” value (GH release [5]; s.c. 10 μg/kg, 0 min (basal)) of the same molecule?
Its value is 63 ± 58 ng/mL.

What about the “POST-DRUG PLASMA GH” value (GH release [5]; s.c. 10 μg/kg, 15 min) of the same molecule?
Its value is 95 ± 44 ng/mL.

What about the “POST-DRUG PLASMA GH” value (GH release [5]; s.c. 10 μg/kg, 40 min) of the same molecule?
The value was 88 ± 29 ng/mL.

What about the “POST-DRUG PLASMA GH” value (GH release [5]; s.c. 25 μg/kg, 0 min (basal)) of the same molecule?
Its value is 56 ± 21 ng/mL.

And the “POST-DRUG PLASMA GH” value (GH release [5]; s.c. 25 μg/kg, 15 min)?
Its value is 388 ± 99 ng/mL.

What about the “POST-DRUG PLASMA GH” value (GH release [5]; s.c. 25 μg/kg, 40 min) of the same molecule?
Its value is 100 ± 51 ng/mL.

And the “POST-DRUG PLASMA GH” value (GH release [5]; s.c. 50 μg/kg, 0 min (basal))?
Its value is 32 ± 16 ng/mL.

What about the “POST-DRUG PLASMA GH” value (GH release [5]; s.c. 50 μg/kg, 15 min) of the same molecule?
The value was 439 ± 69 ng/mL.

And the “POST-DRUG PLASMA GH” value (GH release [5]; s.c. 50 μg/kg, 40 min)?
The value was 81 ± 13 ng/mL.
